Columns and labels:
NK1 [1] = target: T1, NK1 (Homo sapiens, UniProt P14210); experiment: SPR steady-state binding to immobilized NK1 (Biacore T100); parameters: made in house; host or cells: Pichia pastoris
Method in brief: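 NK1 amine-coupled to a CM5 chip at 6000 RU; compound serial dilutions in PBS pH 7.4 with 0.05% Tween 20 injected at 30 μL min^–1, 1 min contact and 1 min dissociation. Binding constants derived from steady-state sensorgram analysis.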

NK1 [2] = target: T1, NK1; experiment: 1H-15N TROSY-HSQC NMR chemical shift titration of 15N-labelled NK1; type: binding; parameters: made in house; host or cells: Pichia pastoris
Method: Ligand screening was performed by monitoring the chemical shift variations in ^1H-^15N TROSY-HSQC NMR spectra of the uniformly [^15N]-labelled NK1 protein (Fragai et al. 2015, in prep.) upon the addition of increasing concentrations of the investigated compounds.[43]–[45] The experiments were performed using 0.18 mM protein samples in 25 mM Tris, 100 mM NaCl and 0.01% sodium azide, at pH 7.2 with 10% D2O. The spectra were recorded at 310 K on a Bruker AVANCE 900 MHz spectrometer equipped with a TXI cryo-probe. Sample solutions were prepared from 1 M or 100 mM DMSO stock solutions of the ligands. The dissociation constant values (KD) were calculated by plotting the weighted average ^1H and ^15N chemical shifts of the residues experiencing significant variations as a function of ligand concentration added during the titration and considering the one site binding model.[46]

[3] = target: T2, lysine-binding pocket of the kringle domain of NK1 (Homo sapiens, UniProt P14210); experiment: Soaking into NK1 apo crystals, X-ray crystallography; conditions: soaked into NK1 apo crystals
T2 construct: made in house; host or cells: Pichia pastoris
T2 sequence (P14210 32-210 isoform P14210-6 limits assumed): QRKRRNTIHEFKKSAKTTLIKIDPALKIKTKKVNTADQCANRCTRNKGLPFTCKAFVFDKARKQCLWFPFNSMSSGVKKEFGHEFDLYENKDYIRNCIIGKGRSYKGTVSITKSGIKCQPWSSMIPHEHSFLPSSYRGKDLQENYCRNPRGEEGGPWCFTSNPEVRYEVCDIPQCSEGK
Method: Next, three classes of piperazine-like sulphonated compounds containing piperazine ((H)EPPS and PIPES), morpholine (MES and MOPS), or cyclohexane (CHES and CAPS) rings were studied for their binding to NK1 (Table 1), alongside another five sulphonated compounds selected from a chemical fragment library (Table 2).
NK1 buffered in 150 mM NaCl, 50 mM Tris, pH 7.5 (apo-NK1 and all soaking experiments) was concentrated to ∼20 mg mL^–1 using a Vivaspin device with a 10 kDa cut-off membrane (Sartorius Biolab). Crystallisation was carried out in Linbro plates by the vapour diffusion hanging drop technique using a protein : precipitant ratio of 1 : 1 at 20 °C. Previously NK1 has been crystallised in 18% PEG 4000, 200 mM sodium acetate and 150 mM Tris pH 8.5 as precipitant.[19] Here final crystallisation conditions (19% PEG 4000, 200 mM sodium acetate and 150 mM Tris pH 7.5) were optimised around those to achieve high-resolution apo structure. Details of compound soaking, X-ray data collection and structure determination are given in the ESI ^† section of the manuscript. […]
For this, 1 M stock solutions were prepared in DMSO (fragments) or water (piperazine- like compounds) and the pH adjusted to a value within their buffering range with either HCl or NaOH. The seven piperazine- like compounds and their respective pH are: HEPES (pH 7.6), (H)EPPS (pH 7.4), PIPES (pH 7.0), MES (pH 5.8), MOPS (pH 7.2), CHES (pH 8.6) and CAPS (pH 9.7). Secondary stocks of the compounds at 50 mM were prepared in the […]
respective mother liquor and soaked for up to 48 hours.
MB605 was solubilised in 50% DMSO at 20 mM concentration (1% f inal DMSO concentration in the drop) in order to minimize adverse effects of DMSO on the protein crystal. 25% ethylene glycol was used as the cryoprotective agent.
X-ray data collection and processing
X-ray datasets were collected either at the European Synchrotron Radiation Facility (ESRF, Grenoble, France), the Diamond Light Source (DLS, Oxford, UK) or in-house using the X8 PROTEUM (Bruker AXS) at the Department of Biochemistry, University of Cambridge.
Datasets of at least 180° were collected. Raw data collected at synchrotrons were integrated, merged, scaled and reduced using DENZO and […].2 Raw data […]
collected in- house were integrated, merged, scaled and reduced using the PROTEUM 2 software package .3 The CCP4 suite of crystallographic programs (Collaborative

T1 sequence (P14210 32-210 isoform P14210-6 limits assumed): as above

With `O=C(O)CCc1ccco1` [MB605] the “affinity for NK1 relative to HEPES” value (NK1 [1]; fold better than HEPES) was “about ten times better affinity”, the Kd (NK1 [1]; steady-state binding constant from SPR, fragment hits (Table 3, text), read-out: KD) was 310 ± 40 µM and the “variation in chemical shifts for NK1 residues” value (NK1 [2]; 1H-15N TROSY-HSQC, residues in and around the lysine-binding pocket) was “showed variation in chemical shifts”. For the same molecule, the Kd (NK1 [2]; NMR chemical shift titration, read-out: KD) was 110 µM and the “binding in the lysine-binding pocket (crystal structure)” value [3] was “binds in the lysine-binding pocket”.
